The values below are quoted from earlier work in patent US20080261937A1, “PHARMACEUTICAL COMPOSITIONS AND METHOD FOR TREATING PEDIATRIC HYPOGONADISM” (priority 2007, published 2008).

As for `C[C@]12CC[C@H]3[C@@H](CCC4=CC(=O)CC[C@@]43C)[C@@H]1CC[C@@H]2O` [testosterone], the “bound to proteins in the blood” value (circulating testosterone) was 98%. Besides, where the note is “in males”, the “share bound weakly to albumin” value was 60% and the “share of binding to sex hormone binding globulin (SHBG)” value is on record as “approximately 40%”.
